Here are results for two molecules from patent US20180216057A1, “SYSTEM AND METHOD FOR GENERATING BIOLOGICAL TISSUE” (Yale University, priority 2017, published 2018).

Structures are written as SMILES.

One test deals with hiPSC-CM EHTs. The test can be described thus: Inotropic/lusitropic response of hiPSC-CM EHTs to β-adrenergic agonist. The note with it: 100 nM isoproterenol, 8% stretch, 30 minutes equilibration, vs baseline. Type of test: cell-based, human. Here is the method:
To determine twitch force development and kinetics, EHTs were measured as early as 5 days after seeding. Clips holding the EHT were ejected from the frame and picked up by motorized micromanipulators with claw-like extensions, leaving the muscle suspended between an anchoring attachment claw on one end and a force transducer mounted to a second claw on the other (FIG. 5D). The EHT was immersed in a temperature-controlled perfusion bath equipped with electrodes for field stimulus. Throughout measurements, scaffolds were perfused with freshly oxygenated Tyrode's solution (in mM: NaCl 140, KCl5.4, MgCl2 1, HEPES 25, glucose 10, and CaCl 1.8; pH adjusted to 7.35). Used Tyrode's solution was collected in a sealed chamber during testing and checked to ensure adequate consistency of pH. The maximum fluctuation never exceeded 0.05 pH units. All measurements were performed at 35° C. During biomechanical testing, NRVM-EHTs were electrically paced (12 V, 10 ms pulse width at 0.5 Hz) and the resulting twitch force was recorded (FIG. 5E). Human EHTs were paced at 1 Hz. Intracellular calcium concentrations were measured in some constructs using the ratiometric fluorescent indicator Fura-2 AM. Inotropic response. […] Tissues were equilibrated in Tyorde's solution for 30 minutes and measured at 8% stretch. […]

Test [1] relates to EHTs from neonatal rat ventricular myocytes (NRVMs) seeded into laser-cut decellularized porcine myocardium. In words: Twitch stress and kinetics of NRVM engineered heart tissues cultured with thyroid hormone T3. Type of test: cell-based. Here is the method:
To determine twitch force development and kinetics, EHTs were measured as early as 5 days after seeding. Clips holding the EHT were ejected from the frame and picked up by motorized micromanipulators with claw-like extensions, leaving the muscle suspended between an anchoring attachment claw on one end and a force transducer mounted to a second claw on the other (FIG. 5D). The EHT was immersed in a temperature-controlled perfusion bath equipped with electrodes for field stimulus. Throughout measurements, scaffolds were perfused with freshly oxygenated Tyrode's solution (in mM: NaCl 140, KCl5.4, MgCl2 1, HEPES 25, glucose 10, and CaCl 1.8; pH adjusted to 7.35). Used Tyrode's solution was collected in a sealed chamber during testing and checked to ensure adequate consistency of pH. The maximum fluctuation never exceeded 0.05 pH units. All measurements were performed at 35° C. During biomechanical testing, NRVM-EHTs were electrically paced (12 V, 10 ms pulse width at 0.5 Hz) and the resulting twitch force was recorded (FIG. 5E). Human EHTs were paced at 1 Hz. Intracellular calcium concentrations were measured in some constructs using the ratiometric fluorescent indicator Fura-2 AM.
During mechanical testing, EHTs were stretched until reaching their culture length (6 mm) and again after applying 0.1 mm incremental increases until reaching a length of 6.6 mm (representing 10% total stretch). Ten contraction events were recorded and averaged at each level of stretch. The peak stress (mN/mm^2) was computed offline by dividing measured force by the cross-sectional area of the EHT. Characteristics of contraction kinetics were also computed offline, including the time to peak stress (TTP) and time from peak stress to 50% relaxation (RT50). The length-stress gain during isometric stretch (slope of the stretch-peak stress relationship, FIG. 13C) was calculated for each scaffold using engineering strain as the unit for stretch. The force-frequency relationship was determined while keeping EHTs at 10% stretch and taking records at 0.5, 1, 2, 4, 6, and 8 Hz. During force-frequency measurements, pacing capture of EHTs was ensured by checking real time oscilloscope readings of the force transducer voltage output.
Thyroid hormone speeds contractile kinetics. To assess the sensitivity of this system towards changes in contractility and twitch kinetics, EHTs were subjected to a pharmacological perturbation known to alter the intrinsic properties of cardiac muscle. In rodents, an increase in thyroid hormone (T3) promotes expression of the faster α isoform of myosin heavy chain23. […] EHTs were characterized functionally and then returned to culture conditions at days 5, 8, 12, and 15.

Setting [2] is: 15 days old NRVM EHTs after T3 treatment, 2 Hz pacing.

Take `CC(C)NCC(O)c1ccc(O)c(O)c1` (stereo not shown) [Isoproterenol]: the “lusitropic response (twitch kinetics TTP and RT50)” value in the test on hiPSC-CM EHTs was “shorter TTP and RT50”.

In the case of `N[C@@H](Cc1cc(I)c(Oc2ccc(O)c(I)c2)c(I)c1)C(=O)O` [T3], in test [1] (setting [2]), the RT50 result was “around 59 ms” and the TTP stood at 83 ms. Also, the “time to peak stress (TTP)” value in test [1] (NRVM EHTs, T3 10 ng/ml in culture, after 15 days in culture, untreated 113±6 ms) came to 77 ± 2 ms. Also, the “time from peak stress to 50% relaxation (RT50)” value in test [1] (NRVM EHTs, T3 10 ng/ml in culture, after 15 days in culture, untreated 130±3 ms) is 63 ± 3 ms. Further, the “effect on evolution of peak stress development across time points” value in test [1] (T3 10 ng/ml, days 5, 8, 12, 15, 2-way repeated measures ANOVA) is on record as “no significant effect”. In test [1] (T3 10 ng/ml, every time point analyzed (days 5, 8, 12, 15), p<0.001), the “effect on rates of contraction and relaxation vs non-treated control” value was “significantly accelerated rates of contraction and relaxation”.
